What was measured:
[1] = cited from earlier work
[2] = biological target: T1, serotonin 5-HT2A receptor (Mus musculus, UniProt P35363); test: head-twitch response (HTR); assay type: in vivo, C57Bl/6J mice; conditions: for HTR compared to DOI (positive control, 1 mg/kg) / HTR compared to vehicle: HTRs counted for 15 minutes, adult male mice; for model fit of data (GraphPad Prism 9): FIG. 16 legend
T1 construct: tissue Jackson Laboratory; host or cells: living C57Bl/6J mice (whole animal, behavioural read-out)
T1 sequence (P35363 whole entry): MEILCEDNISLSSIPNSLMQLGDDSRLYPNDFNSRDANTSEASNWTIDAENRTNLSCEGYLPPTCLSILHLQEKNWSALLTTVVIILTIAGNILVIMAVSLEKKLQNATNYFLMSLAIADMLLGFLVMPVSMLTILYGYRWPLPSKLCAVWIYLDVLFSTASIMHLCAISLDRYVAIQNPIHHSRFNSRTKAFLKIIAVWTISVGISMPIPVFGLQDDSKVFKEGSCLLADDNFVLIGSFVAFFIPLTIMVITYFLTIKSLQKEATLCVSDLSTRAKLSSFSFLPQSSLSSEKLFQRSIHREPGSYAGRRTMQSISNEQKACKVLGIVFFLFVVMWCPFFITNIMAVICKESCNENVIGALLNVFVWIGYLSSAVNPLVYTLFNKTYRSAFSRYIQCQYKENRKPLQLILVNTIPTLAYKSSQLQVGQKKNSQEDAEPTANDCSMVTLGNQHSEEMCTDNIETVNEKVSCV
Experimental: The HTR assay was performed in adult, male C57Bl/6J mice, procured from the Jackson Laboratory (Bar Harbor, Maine), as previously described (Canal, C. E., and Morgan, D., 2012, Head-twitch response in rodents induced by the hallucinogen 2,5-dimethoxy-4-iodoamphetamine: a comprehensive history, a re-evaluation of mechanisms, and its utility as a model, Drug Test Anal 4, 556-576; Saraf, T. S., Felsing, D. E., Armstrong, J. L., Booth, R. G., and Canal, C. E., 2021, Evaluation of lorcaserin as an anticonvulsant in juvenile Fmr1 knockout mice, Epilepsy Res 175, 106677). Mice were housed in standard laboratory cages with ad libitum access to food and water, and were acclimated to the vivarium for at least one week prior to testing in a procedure room. On the day of testing, mice were acclimated to the procedure room in their home cages for ≥60 mi before administration of test compounds. Mice were injected subcutaneously, placed immediately thereafter in a clear, polycarbonate box (46×20×20 cm), and HTRs were counted for 15 consecutive minutes, using hand-held tally counters, by two trained observers who were blind to treatment.

[3] = biological target: T2, human serotonin 5-HT2A receptor (Homo sapiens, UniProt P28223); test: radioligand competition binding, [3H]Ketanserin; conditions: HEK293 membranes, [3H]Ketanserin ~1.6 nM
T2 construct: host or cells: HEK293 (ATCC CRL-1573), transient transfection, membrane preparation
T2 sequence (P28223 whole entry): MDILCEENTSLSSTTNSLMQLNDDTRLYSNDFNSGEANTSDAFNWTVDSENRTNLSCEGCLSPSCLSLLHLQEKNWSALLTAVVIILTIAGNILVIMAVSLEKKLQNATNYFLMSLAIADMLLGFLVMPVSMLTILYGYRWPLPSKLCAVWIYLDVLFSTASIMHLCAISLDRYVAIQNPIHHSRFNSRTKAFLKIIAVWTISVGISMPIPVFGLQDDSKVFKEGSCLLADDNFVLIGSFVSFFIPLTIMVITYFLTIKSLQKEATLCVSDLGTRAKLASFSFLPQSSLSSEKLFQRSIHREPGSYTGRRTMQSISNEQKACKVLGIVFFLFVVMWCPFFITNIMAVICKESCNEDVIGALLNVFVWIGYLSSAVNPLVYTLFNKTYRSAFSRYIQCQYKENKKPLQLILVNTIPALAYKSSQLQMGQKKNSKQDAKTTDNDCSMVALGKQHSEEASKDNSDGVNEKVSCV
Experimental: Radioligand competition binding was performed as previously described (Saraf, T. S., Felsing, D. E., Armstrong, J. L., Booth, R. G., and Canal, C. E., 2021, Evaluation of lorcaserin as an anticonvulsant in juvenile Fmr1 knockout mice, Epilepsy Res 175, 106677), with minor modifications. Plasmids encoding human serotonin 5-HT2A receptor cDNA were procured from the cDNA Resource Center. Human embryonic kidney cells (HEK293, ATCC CRL-1573) were grown in a cell incubator in 100 mm dishes with antibiotic-free Dulbecco's modified Eagle's medium containing 10% fetal bovine serum. Cells were transfected at ˜85% confluency with […] cDNA using TransIT-2020 reagent (Mirus Bio, Madison, Wisconsin). After approximately 48 hours, cell membrane was collected via centrifugation. For all experiments, serotonin (5-HT) hydrochloride was used as a positive control, and mianserin hydrochloride (10 μM) was used to define non-specific binding. Each cell membrane homogenate expressing 5-HT2A receptors was incubated in 96-well plates with [^3H]Ketanserin (PerkinElmer, Waltham, Massachusetts), ˜1.6 nM (its Kd at human 5-HT2A receptors), in the absence or presence of test compounds in a buffer. Following equilibration, each sample was filtered rapidly under vacuum through fiberglass filters presoaked in a buffer and rinsed several times with an ice-cold buffer using a cell harvester. Filters were soaked with scintillation fluid, and counts per minute were detected using photodetectors. IC50 values were computed using nonlinear, least squares regression analyses and then converted to Ki values using the Cheng-Prusoff equation (GraphPad Prism 9.0, San Diego, California).

[4] = in vitro liver metabolism (metabolic stability); assay type: in vitro ADME; conditions: rat liver microsomes, NADPH regenerating system, 0 to 60 min
Experimental: In Vitro Liver Metabolism and Kinetic Deuterium Isotope Effects Compounds (10 μl of 2 μM solution) are incubated in 200 μl of medium that contains […] rat liver microsomes, NADPH regenerating system (1 mM NADP, 1 unit/ml of isocitrate dehydrogenase, 5 mM isocitric acid, 5 mM magnesium chloride), and 25 mM of phosphate buffer (pH 7.4). The reaction is terminated at different time points (0 to 60 min) by the addition of 300 μl of acetonitrile. For the analyses of products, the precipitated salts and proteins are spun out on a centrifuge, the residual solution diluted with 300 μl of water and injected into the LC/MS (Agilent 1200 system interfaced with an ABS Sciex 4000 QTRAP LC/MS/MS Mass Spectrometer). The metabolic stability may be estimated by evaluating the rate of disappearance of the main parent peak.

Row | Structure (SMILES) | activity after oral administration [1] | HTR compared to DOI (positive control, 1 mg/kg) ([2]; 3 mg/kg, subcutaneous) | HTR compared to vehicle ([2]; 3 mg/kg, subcutaneous) | model fit of data (GraphPad Prism 9) [2] | activity at serotonin 5-HT2A receptors (FIG. 17) [3] | difference in affinity between deuterated and non-deuterated compounds [3] | effect of deuteration of the 2,5-methoxy groups on HTR (versus Compound I-1) ([2]; 3 mg/kg, subcutaneous, 15 minutes) | half life longer than Reference Compound 2 (2C—B) [4] [%]
1 | COc1cc(OC)c(OC)cc1CCN [2C—O] | inactive | – | – | – | – | – | – | –
2 | COc1cc(SC(F)(F)F)c(OC)cc1CCN [Compound I-1, 2-(2,5-dimethoxy-4-((trifluoromethyl)thio)phenyl)ethan-1-amine] | – | not statistically different from DOI | statistically different from vehicle | fit best to a two-site model | pronounced agonists | no significant differences in affinity | – | –
3 | [2H]C([2H])([2H])Oc1cc(SC(F)(F)F)c(OC([2H])([2H])[2H])cc1CCN [Compound II-10, 2-(2,5-bis(methoxy-d3)-4-((trifluoromethyl)thio)phenyl)ethan-1-amine] | – | not statistically different from DOI | statistically different from vehicle | fit best to a two-site model | pronounced agonists | no significant differences in affinity | increased the HTR response | –
4 | [2H]C([2H])([2H])Oc1cc(C([2H])([2H])C([2H])([2H])N)c(OC([2H])([2H])[2H])cc1Br [Compound II-14, 2-(4-bromo-2,5-bis(methoxy-d3)phenyl)ethan-1,1,2,2-d4-1-amine] | – | – | – | – | – | – | – | 50
